Active and inactive are the calls of the source.
Tests used:
[1] = target: T1, Aryl hydrocarbon receptor (Homo sapiens, UniProt P35869); experiment: Luminescence-based cell-based high throughput dose response assay for activators of the Aryl Hydrocarbon Receptor (AHR). [Related pubchem assays: 2796 (Primary screen (AHR activators in singlicate)), 2845 (Confirmation screen (AHR activators in triplicate)), 434939 (Counterscreen (PXR activators in triplicate)), 2804 (Summary (AHR activators))]; assay type: ADME
T1 sequence (P35869 whole entry): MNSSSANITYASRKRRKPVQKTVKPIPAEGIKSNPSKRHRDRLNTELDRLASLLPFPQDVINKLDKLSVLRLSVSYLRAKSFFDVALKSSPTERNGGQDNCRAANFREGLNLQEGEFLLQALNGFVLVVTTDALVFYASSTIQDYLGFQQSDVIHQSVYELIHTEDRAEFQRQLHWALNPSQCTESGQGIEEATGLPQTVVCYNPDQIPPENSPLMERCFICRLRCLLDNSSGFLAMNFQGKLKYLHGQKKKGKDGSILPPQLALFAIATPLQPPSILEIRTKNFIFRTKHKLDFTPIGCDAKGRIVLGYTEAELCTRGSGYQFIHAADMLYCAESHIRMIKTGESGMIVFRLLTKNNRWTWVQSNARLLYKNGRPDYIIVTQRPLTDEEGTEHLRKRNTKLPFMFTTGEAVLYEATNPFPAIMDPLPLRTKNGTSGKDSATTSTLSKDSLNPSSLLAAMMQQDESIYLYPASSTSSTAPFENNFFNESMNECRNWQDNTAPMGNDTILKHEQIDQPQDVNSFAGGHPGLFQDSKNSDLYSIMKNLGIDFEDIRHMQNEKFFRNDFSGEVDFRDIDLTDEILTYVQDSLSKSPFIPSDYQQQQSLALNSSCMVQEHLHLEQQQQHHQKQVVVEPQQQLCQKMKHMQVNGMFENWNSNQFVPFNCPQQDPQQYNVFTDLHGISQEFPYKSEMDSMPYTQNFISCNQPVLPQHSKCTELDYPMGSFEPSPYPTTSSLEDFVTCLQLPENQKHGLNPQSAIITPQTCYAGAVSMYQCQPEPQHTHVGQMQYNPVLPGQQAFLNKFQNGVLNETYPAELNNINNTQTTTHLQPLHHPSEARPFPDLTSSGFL

[2] = target: Peroxisome proliferator-activated receptor gamma/Nuclear receptor coactivator 1 (Homo sapiens, UniProt P37231); assay type: functional;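 further: agonist potency as compounds enhance coactivator SRC-1 recruitment to PPARgamma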
[3] = target: Peroxisome proliferator-activated receptor gamma/Nuclear receptor coactivator 3 (Homo sapiens, UniProt P37231); assay type: functional;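 further: agonist potency for raising coactivator recruitment to the receptor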
[4] = target: Peroxisome proliferator-activated receptor gamma/Nuclear receptor coactivator 2 (Homo sapiens, UniProt P37231); assay type: functional;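 further: agonist potency for raising coactivator recruitment to the receptor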
HT-1080 = experiment: cytotoxicity in HT1080 fibrosarcoma cells, cell-based, fluorescence readout (AID 620); assay type: functional; details: Homo sapiens
[5] = target: Luciferin 4-monooxygenase (Photinus pyralis, UniProt P08659); experiment: Counter Screen for Luciferase-based Assay Positives. [Related pubchem assays: 620, 618, 411 ]
[6] = A Cell Based Secondary Assay To Explore Cytotoxicity of Compounds that Sensitize Mycobacterium Tuberculosis to Beta-Lactam Antibiotics.; assay type: functional
[7] = system: Streptococcus sp. 'group A'; experiment: growth inhibition of control SK(-) GAS strain, dose response, counter-screen for streptokinase expression inhibitor project, luminescence, kanamycin, BacTiterGlo, confirmation (AID 1900); assay type: functional, organism-based
Streptokinase A = target: T2, Streptokinase A (Streptococcus pyogenes serotype M1, UniProt P10520); experiment: S. pyogenes streptokinase expression inhibitors, potency, dose response, plasminogen activation absorbance, OD405 (AID 1914); assay type: functional, Streptococcus pyogenes M1 GAS;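 further: secreted streptokinase activity via plasminogen activation per viability signal from cell pellet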
T2 sequence (P10520 whole entry): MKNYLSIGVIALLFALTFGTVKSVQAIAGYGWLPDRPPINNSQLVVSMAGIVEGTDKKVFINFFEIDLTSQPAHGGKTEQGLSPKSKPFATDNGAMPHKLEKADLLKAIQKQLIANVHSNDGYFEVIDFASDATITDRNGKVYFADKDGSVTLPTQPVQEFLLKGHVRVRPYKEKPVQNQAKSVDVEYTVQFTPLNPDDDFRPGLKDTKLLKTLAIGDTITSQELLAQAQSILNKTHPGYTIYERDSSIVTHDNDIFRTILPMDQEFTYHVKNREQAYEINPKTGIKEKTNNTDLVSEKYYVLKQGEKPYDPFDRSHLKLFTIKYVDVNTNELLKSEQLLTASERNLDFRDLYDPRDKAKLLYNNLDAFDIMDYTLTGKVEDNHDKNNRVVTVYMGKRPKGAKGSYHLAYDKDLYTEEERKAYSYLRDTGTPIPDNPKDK

Streptococcus = experiment: Group A Streptococcus viability loss, dose response, counter-screen for streptokinase expression inhibitor project, luminescence, BacTiterGlo (AID 1915); assay type: functional, organism-based;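 further: potency for reduction of bacterial viability or growth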
[8] = target: Mitogen-activated protein kinase 10 (Homo sapiens, UniProt P53779); experiment: Dose response biochemical screening assay for inhibitors of c-Jun N-Terminal Kinase 3 (JNK3). [Related pubchem assays: 746 ]
[9] = Luminescence Cell-Based Dose Retest to Confirm Inhibitors of Cancer Stem Cells. [Related pubchem assays (depositor defined):AID2717, AID2721]; assay type: functional; details: Homo sapiens
Cytochrome P450 2C19 = Cytochrome P450 2C19 (Homo sapiens, UniProt P33261); experiment: Cytochrome panel assay with activity outcomes. Panel member name: p450-cyp2c19 Compounds with AC50 equal or less than 10 uM are considered active; assay type: functional; details: read-out: AC50
Cytochrome P450 2D6 = Cytochrome P450 2D6 (Homo sapiens, UniProt P10635);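 further: CYP2D6 member of a cytochrome P450 panel assay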
[10] = target: NAD-dependent protein deacylase sirtuin-5, mitochondrial (Homo sapiens, UniProt Q9NXA8); experiment: SIRT5 desuccinylase inhibitors, dose response, biochemical, fluorescence imaging, cherry-pick, set 5 (AID 720591);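 further: desuccinylation of succinyl peptide AMC substrate read as fluorescence after trypsin release; potency of inhibitors that lower fluorescence and may act on trypsin instead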
Cytochrome P450 1A2 = target: T3, Cytochrome P450 1A2 (Homo sapiens, UniProt P05177);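 further: PubChem cytochrome P450 panel assay, CYP1A2 panel member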
T3 sequence (P05177 whole entry): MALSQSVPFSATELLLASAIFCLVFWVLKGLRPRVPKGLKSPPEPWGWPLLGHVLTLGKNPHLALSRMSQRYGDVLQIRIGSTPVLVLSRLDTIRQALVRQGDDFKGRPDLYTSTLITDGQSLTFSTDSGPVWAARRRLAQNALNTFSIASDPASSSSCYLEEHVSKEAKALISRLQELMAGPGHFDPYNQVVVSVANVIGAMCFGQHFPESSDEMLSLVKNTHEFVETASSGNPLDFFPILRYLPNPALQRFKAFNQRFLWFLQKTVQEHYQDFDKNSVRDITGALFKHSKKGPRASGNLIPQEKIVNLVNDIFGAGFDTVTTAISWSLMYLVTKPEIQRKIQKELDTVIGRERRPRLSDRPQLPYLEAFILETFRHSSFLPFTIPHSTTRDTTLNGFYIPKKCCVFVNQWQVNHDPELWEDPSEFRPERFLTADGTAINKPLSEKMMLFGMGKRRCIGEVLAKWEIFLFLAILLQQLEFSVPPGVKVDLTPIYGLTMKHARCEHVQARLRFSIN

Peroxisome proliferator-activated receptor gamma/Nuclear receptor coactivator 1, sequence (P37231 whole entry): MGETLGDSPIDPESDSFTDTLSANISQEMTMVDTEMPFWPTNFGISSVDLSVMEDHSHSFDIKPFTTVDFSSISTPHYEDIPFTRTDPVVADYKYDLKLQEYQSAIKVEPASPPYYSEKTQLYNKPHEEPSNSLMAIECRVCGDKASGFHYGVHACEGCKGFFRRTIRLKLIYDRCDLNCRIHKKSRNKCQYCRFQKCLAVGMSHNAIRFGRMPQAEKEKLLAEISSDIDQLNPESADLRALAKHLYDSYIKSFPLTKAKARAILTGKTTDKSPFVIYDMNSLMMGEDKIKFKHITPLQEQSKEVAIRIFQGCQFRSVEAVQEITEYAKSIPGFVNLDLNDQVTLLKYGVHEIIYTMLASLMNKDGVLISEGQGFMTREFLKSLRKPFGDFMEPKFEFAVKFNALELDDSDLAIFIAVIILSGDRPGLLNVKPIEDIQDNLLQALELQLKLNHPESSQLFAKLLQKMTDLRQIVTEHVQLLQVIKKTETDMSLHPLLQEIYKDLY
Peroxisome proliferator-activated receptor gamma/Nuclear receptor coactivator 1, sequence (Q15788 whole entry, further chain): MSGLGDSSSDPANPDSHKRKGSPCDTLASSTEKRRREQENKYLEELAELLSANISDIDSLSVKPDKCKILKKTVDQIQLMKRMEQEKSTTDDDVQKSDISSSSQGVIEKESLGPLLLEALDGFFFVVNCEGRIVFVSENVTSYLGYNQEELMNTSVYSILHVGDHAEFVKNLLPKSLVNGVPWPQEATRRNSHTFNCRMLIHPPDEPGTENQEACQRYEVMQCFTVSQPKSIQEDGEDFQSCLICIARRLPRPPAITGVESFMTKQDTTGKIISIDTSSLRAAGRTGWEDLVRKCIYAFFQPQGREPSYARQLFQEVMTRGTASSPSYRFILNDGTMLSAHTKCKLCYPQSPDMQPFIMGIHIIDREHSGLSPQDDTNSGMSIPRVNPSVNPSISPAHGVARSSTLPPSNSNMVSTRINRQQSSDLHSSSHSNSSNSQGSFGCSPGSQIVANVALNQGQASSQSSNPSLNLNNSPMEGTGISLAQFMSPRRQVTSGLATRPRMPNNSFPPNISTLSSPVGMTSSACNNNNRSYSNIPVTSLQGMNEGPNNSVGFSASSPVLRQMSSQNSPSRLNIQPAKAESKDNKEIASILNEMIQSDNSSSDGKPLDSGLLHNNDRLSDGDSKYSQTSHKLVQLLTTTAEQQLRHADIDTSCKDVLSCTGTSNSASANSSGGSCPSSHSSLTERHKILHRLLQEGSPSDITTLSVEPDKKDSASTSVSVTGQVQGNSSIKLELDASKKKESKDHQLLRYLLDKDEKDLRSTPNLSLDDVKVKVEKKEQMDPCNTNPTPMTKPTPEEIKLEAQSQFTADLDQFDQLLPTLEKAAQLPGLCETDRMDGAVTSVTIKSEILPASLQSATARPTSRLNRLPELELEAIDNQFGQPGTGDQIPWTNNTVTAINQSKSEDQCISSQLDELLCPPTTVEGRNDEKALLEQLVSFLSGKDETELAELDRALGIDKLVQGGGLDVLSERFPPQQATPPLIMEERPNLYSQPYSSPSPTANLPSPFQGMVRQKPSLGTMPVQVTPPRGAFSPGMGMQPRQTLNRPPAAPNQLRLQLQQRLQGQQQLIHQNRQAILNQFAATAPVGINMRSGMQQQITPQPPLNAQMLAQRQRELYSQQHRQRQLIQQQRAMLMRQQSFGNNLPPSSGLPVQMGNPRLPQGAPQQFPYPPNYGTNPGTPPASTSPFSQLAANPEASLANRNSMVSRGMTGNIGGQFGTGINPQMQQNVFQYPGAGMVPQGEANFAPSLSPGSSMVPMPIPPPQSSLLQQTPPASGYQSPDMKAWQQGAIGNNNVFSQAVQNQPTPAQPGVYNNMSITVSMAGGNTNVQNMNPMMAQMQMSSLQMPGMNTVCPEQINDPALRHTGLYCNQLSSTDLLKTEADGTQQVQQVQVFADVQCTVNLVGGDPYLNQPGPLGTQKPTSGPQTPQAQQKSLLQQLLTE
Peroxisome proliferator-activated receptor gamma/Nuclear receptor coactivator 3, sequence (P37231 whole entry): as the sequence (P37231 whole entry) above
Peroxisome proliferator-activated receptor gamma/Nuclear receptor coactivator 3, sequence (Q9Y6Q9 whole entry, further chain): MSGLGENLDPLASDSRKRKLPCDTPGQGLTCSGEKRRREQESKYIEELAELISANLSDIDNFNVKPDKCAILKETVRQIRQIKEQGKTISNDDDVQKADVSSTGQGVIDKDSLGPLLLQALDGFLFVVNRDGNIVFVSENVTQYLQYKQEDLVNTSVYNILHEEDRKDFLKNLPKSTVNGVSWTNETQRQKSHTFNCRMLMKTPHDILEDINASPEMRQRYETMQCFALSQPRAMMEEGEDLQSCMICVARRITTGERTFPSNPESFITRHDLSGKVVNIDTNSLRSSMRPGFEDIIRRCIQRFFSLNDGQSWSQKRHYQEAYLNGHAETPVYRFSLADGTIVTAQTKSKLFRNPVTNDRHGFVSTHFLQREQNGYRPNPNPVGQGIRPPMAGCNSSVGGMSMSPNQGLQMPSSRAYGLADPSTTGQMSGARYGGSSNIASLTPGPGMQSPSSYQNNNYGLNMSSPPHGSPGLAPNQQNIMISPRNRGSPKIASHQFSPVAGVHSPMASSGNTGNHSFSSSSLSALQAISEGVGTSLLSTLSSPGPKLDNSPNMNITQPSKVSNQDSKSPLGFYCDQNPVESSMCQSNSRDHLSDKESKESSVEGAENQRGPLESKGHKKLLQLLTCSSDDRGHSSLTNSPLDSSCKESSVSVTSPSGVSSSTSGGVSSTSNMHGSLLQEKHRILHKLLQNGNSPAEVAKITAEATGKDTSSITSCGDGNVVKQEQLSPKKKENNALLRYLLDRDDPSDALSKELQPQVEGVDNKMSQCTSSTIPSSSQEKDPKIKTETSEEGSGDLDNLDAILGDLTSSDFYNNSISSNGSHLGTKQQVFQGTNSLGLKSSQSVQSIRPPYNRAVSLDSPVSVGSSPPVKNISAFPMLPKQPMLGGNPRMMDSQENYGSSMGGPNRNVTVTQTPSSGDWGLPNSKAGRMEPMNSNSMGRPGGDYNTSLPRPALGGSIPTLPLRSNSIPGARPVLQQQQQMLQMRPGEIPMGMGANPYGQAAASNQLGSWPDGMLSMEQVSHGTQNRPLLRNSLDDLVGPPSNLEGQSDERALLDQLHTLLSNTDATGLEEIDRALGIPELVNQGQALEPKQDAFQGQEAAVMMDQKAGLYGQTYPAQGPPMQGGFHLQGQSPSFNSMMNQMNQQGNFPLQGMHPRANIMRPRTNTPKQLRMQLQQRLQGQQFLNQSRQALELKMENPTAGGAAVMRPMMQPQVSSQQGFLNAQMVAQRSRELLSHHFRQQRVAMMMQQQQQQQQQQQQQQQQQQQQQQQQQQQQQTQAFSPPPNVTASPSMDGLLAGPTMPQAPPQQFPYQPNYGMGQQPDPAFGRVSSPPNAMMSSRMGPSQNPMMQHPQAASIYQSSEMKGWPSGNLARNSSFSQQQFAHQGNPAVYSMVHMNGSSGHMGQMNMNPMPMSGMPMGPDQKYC
Cytochrome P450 2C19, sequence (P33261 whole entry): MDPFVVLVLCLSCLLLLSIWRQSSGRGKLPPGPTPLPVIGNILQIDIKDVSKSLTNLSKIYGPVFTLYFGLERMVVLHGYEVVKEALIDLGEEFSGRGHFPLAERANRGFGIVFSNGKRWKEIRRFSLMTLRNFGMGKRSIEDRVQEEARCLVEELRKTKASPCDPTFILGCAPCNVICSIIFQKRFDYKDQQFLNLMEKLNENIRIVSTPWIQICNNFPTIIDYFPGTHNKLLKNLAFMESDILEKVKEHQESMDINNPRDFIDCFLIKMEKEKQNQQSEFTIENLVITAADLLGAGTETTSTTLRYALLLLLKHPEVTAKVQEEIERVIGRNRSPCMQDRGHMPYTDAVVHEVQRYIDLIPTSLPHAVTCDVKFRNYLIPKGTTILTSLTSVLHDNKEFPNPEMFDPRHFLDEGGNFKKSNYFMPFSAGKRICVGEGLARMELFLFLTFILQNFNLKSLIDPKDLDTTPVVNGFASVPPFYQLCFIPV
Luciferin 4-monooxygenase, sequence (P08659 whole entry): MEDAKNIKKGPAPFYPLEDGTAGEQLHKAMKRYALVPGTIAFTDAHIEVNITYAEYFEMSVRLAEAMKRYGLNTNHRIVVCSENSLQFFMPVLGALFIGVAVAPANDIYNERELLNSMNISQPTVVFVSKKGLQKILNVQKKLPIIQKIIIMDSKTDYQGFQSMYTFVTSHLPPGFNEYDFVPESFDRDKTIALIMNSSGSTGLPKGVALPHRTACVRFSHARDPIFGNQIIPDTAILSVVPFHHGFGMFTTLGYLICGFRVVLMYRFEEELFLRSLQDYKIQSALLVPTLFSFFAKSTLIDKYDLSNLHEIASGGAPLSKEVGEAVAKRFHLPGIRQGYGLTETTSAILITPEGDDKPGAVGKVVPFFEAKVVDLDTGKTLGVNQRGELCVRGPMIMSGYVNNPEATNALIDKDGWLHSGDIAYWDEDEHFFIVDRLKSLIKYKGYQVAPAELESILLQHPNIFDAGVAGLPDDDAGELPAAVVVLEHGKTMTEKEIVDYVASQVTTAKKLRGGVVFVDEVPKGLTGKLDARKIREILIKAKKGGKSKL

For `Cc1csc(SCC(=O)Nc2ccc(Cl)cn2)n1`, which EC50 [1] is on record?
The EC50 was 1.54 µM (active).

With `C=CCn1c(=O)c2ccccc2n2c(SCC(=O)c3ccccc3)nnc12` as the compound, how does the EC50 [2] read?
The EC50 was > 79.4 µM (not active).

What about the EC50 [3] of the same compound?
Its EC50 is > 79.4 µM (not active).

And the EC50 [4]?
Its EC50 is > 79.4 µM (not active).

With `Cc1ccc(-c2nc3cc(N)ccc3o2)c(C)c1` as the compound, how does the EC50 (HT-1080) read?
Its EC50 is > 50 µM (not active).

What about the EC50 [5] of the same compound?
The EC50 was 1.95 µM (active).

Which results are given for `Cc1cccc(NC(=O)c2nc[nH]c2C(=O)N[C@@H](CC(C)C)C(=O)OCc2ccccc2)c1`?
CC50 [6]: 22.4 µM (active); EC50 [7]: 2.12 µM (active); EC50 (Streptokinase A): > 150 µM (not active); EC50 (Streptococcus): 3.95 µM (active)

With `COc1cc(C(=O)NCc2cn3ccccc3n2)cc(OC)c1OC` as the compound, how does the IC50 [8] read?
The IC50 was 7.87 µM (active).

What does the source list for `COC(=O)c1ccc(S(=O)(=O)c2ccc(C(=O)OC)s2)s1`?
EC50 [2]: 24.6 µM (not active); EC50 [3]: 36.7 µM (not active); EC50 [4]: 27.1 µM (not active)

With `O=C(O)CCCC(=O)Nc1cc([N+](=O)[O-])ccc1O` as the compound, how does the EC50 [2] read?
Its EC50 is > 79.4 µM (not active).

And the EC50 [3]?
Its EC50 is > 79.4 µM (not active).

What about the EC50 [4] of the same compound?
Its EC50 is > 79.4 µM (not active).

With `O=C(/C=C/c1ccccc1[N+](=O)[O-])c1ccc(F)cc1` as the compound, how does the CC50 [6] read?
The CC50 was > 40 µM (active).

With `Oc1oc(-c2ccccc2)nc1/C=N/c1nccs1` as the compound, how does the EC50 [1] read?
The EC50 was 12.3 µM (not active).

With `CC(/C=C/c1cccc([N+](=O)[O-])c1)=N/NC(=O)c1cccnc1` as the compound, how does the EC50 [1] read?
Its EC50 is > 91.6 µM (not active).

For `CC(C)(Sc1ccc(CCN(CCCCC2CCCCC2)C(=O)NC2CCCCC2)cc1)C(=O)O` [GW7647], which AC50 [9] is on record?
Its AC50 is 4.46 µM (active).

What about the AC50 (Cytochrome P450 2C19) of the same compound?
The AC50 was 25.1 µM (inconclusive).

And the AC50 (Cytochrome P450 2D6)?
Its AC50 is “inconclusive”.

And the AC50 [10]?
Its AC50 is 7.9 µM (active).

What about the AC50 (Cytochrome P450 1A2) of the same compound?
The AC50 was 39.8 µM (inconclusive).

Source: ChEMBL document CHEMBL1201862, “PubChem BioAssay data set” (2004)
